According to patent US7928140B2, “Benzothiazole PI3 kinase modulators for cancer treatment” (Amgen Inc., priority 2007, dated 2011):

Tests used:
PI3K α = biological target: T1, PI3K α (Homo sapiens, UniProt P42336); test: In vitro PI3 kinase enzyme assay (alpha), ATP loss, bioluminescence; assay type: biochemical; conditions: read-out: PI3Kα ATP loss IC50;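 note: purified p110α/p85 heterodimer acting on PtdIns(4,5)P2 at room temperature, remaining ATP read by luminescence, inhibition scaled between compound-free wells with and without enzyme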
T1 construct: Full length p110 subunits of PI3K α, β and δ, N-terminally labeled with polyHis tag; polyHis (N); made in house; host or cells: Sf9 insect cells (baculovirus)

PI3K β = biological target: T2, PI3K β (Homo sapiens, UniProt P42338); test: In vitro PI3 kinase enzyme assay (beta), ATP loss, bioluminescence; assay type: biochemical; conditions: read-out: PI3Kβ ATP loss IC50;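 note: purified p110β/p85 heterodimer with PtdIns(4,5)P2 as acceptor, incubated at room temperature, leftover ATP read by luminescence, inhibition scaled to compound-free wells with and without enzyme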
T2 construct: Full length p110 subunits of PI3K α, β and δ, N-terminally labeled with polyHis tag; polyHis (N); made in house; host or cells: Sf9 insect cells (baculovirus)
T2 sequence (P42338 whole entry): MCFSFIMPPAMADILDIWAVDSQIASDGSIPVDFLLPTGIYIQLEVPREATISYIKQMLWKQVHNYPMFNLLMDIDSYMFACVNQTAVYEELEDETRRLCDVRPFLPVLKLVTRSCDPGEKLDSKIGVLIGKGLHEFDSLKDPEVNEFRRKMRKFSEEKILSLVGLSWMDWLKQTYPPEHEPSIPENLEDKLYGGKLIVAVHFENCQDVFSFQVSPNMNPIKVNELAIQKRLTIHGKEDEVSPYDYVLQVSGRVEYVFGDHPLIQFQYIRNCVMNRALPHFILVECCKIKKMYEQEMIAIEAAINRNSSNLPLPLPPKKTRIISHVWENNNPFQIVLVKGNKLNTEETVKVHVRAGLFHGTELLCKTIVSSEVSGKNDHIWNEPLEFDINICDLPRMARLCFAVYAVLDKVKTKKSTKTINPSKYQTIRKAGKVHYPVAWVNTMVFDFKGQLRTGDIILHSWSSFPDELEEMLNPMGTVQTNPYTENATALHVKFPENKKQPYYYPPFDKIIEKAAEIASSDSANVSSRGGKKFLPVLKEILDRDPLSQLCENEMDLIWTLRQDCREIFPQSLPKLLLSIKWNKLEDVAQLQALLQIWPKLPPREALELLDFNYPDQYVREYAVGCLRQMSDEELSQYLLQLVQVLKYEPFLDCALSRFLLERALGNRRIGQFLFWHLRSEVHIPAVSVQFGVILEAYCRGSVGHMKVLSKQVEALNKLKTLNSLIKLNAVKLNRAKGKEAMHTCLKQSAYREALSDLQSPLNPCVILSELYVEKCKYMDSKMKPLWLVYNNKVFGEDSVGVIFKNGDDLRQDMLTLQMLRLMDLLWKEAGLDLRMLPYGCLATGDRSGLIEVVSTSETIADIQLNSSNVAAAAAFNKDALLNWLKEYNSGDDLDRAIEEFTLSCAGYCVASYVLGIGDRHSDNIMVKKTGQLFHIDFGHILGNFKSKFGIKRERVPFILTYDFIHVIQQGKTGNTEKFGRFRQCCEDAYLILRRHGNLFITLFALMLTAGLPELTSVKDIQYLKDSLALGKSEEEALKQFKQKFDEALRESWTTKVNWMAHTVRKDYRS
T2 sequence (P27986 whole entry partner): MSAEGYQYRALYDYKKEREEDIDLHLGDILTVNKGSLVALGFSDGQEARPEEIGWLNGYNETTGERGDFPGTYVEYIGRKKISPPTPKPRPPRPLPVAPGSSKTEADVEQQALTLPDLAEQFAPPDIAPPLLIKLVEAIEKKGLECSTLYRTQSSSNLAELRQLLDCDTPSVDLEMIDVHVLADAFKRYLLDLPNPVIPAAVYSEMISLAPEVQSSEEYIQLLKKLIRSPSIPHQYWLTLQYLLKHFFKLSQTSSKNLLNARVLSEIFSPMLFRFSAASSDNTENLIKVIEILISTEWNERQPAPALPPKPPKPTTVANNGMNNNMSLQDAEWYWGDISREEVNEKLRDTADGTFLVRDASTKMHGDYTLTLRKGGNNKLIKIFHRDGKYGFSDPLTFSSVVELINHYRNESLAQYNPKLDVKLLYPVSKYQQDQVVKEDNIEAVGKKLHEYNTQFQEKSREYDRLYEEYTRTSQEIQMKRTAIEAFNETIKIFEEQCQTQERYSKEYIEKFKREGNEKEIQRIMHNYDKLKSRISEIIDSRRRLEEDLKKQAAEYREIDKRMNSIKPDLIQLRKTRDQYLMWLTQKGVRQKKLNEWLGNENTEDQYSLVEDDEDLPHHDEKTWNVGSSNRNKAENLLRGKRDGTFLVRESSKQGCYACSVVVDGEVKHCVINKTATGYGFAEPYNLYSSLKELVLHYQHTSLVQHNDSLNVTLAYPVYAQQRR

T1 sequence (P42336 whole entry, species assumed): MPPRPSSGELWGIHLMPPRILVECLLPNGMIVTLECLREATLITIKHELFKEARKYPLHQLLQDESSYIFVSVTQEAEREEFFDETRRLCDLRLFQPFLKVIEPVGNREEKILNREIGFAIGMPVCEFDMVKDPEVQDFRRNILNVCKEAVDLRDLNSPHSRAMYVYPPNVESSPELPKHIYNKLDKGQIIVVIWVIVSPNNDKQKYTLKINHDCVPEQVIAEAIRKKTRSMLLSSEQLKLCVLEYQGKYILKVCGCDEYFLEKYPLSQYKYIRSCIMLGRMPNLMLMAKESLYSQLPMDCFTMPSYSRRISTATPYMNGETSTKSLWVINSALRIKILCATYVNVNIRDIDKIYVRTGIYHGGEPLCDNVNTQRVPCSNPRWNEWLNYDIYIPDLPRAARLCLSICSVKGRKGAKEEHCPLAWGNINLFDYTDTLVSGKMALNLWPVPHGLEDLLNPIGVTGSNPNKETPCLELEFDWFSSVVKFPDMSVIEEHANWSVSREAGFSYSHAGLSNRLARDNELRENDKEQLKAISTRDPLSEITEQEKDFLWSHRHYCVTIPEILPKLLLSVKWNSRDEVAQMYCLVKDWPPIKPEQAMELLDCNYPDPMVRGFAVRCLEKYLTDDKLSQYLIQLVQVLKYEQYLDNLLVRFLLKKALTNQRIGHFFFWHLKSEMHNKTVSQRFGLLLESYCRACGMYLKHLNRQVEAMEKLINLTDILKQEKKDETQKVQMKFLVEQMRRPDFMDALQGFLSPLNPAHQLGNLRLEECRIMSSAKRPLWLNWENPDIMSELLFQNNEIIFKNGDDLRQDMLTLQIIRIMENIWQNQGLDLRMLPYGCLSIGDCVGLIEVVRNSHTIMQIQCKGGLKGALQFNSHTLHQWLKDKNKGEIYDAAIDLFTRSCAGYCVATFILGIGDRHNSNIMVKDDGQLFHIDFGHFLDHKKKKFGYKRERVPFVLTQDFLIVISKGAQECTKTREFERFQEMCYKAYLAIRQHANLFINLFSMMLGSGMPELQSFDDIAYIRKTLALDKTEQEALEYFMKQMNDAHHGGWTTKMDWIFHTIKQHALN
T1 sequence (P27986 whole entry partner, species assumed): as the sequence (P27986 whole entry partner) above

| Compound | IC50 (PI3K α) [nM] | IC50 (PI3K β) [nM] |
| --- | --- | --- |
| Nc1nc2ccc(-c3cccc(NS(=O)(=O)c4ccccc4F)n3)cc2s1 [Example 72, N-(6-(2-amino-1,3-benzothiazol-6-yl)-2-pyridinyl)-2-fluorobenzenesulfonamide] | 2270 | 1600 |
| CC(=O)Nc1ccc(S(=O)(=O)Nc2nccc(-c3ccc4nc(NC(C)=O)sc4c3)n2)cc1 [Example 86, N-(4-((4-(2-(acetylamino)-1,3-benzothiazol-6-yl)-2-pyrimidinyl)sulfamoyl)phenyl)acetamide] | 319 | 10200 |
| COc1ccc(-c2cccc3nc(NC(C)=O)sc23)cc1 [Example 95, N-(7-(4-Methoxyphenyl)benzo[d]thiazol-2-yl)acetamide] | 6540 | > 40000 |
| CC(=O)Nc1nc2ccc(-c3cccc4[nH]ncc34)cc2s1 [Example 99, N-(6-(1H-Indazol-4-yl)benzo[d]thiazol-2-yl)acetamide] | 288 | > 40000 |
| CC(=O)Nc1nc2ccc(-c3cc(C)nc(N)n3)cc2s1 [Example 101, N-(6-(2-Amino-6-methylpyrimidin-4-yl)benzo[d]thiazol-2-yl)acetamide] | 4190 | 9990 |
| CC(=O)Nc1nc2ccc(-c3ccnc(OCCCO)n3)cc2s1 [Example 102, N-(6-(2-(3-hydroxypropoxy)-4-pyrimidinyl)-1,3-benzothiazol-2-yl)acetamide] | 664 | > 40000 |
| CC(=O)Nc1nc2ccc(-c3ccnc(OCCCCO)n3)cc2s1 [Example 103, N-(6-(2-(4-hydroxybutoxy)-4-pyrimidinyl)-1,3-benzothiazol-2-yl)acetamide] | 727 | > 40000 |
| CC(=O)Nc1nc2ccc(-c3ccnc(Sc4ccc(C)c(C)c4)n3)cc2s1 [Example 128, N-(6-(2-((3,4-dimethylphenyl)sulfanyl)-4-pyrimidinyl)-1,3-benzothiazol-2-yl)acetamide] | 33.9 | 522 |
| CC(=O)Nc1nc2ccc(-c3ccnc(Sc4ccc(Br)cc4)n3)cc2s1 [Example 139, N-(6-(2-((4-bromophenyl)sulfanyl)-4-pyrimidinyl)-1,3-benzothiazol-2-yl)acetamide] | 80.7 | 1050 |
| CC(=O)Nc1nc2ccc(-c3ccnc(Sc4cccc(Cl)c4)n3)cc2s1 [Example 140, N-(6-(2-((3-chlorophenyl)sulfanyl)-4-pyrimidinyl)-1,3-benzothiazol-2-yl)acetamide] | 83.6 | 134 |
| CC(=O)Nc1nc2ccc(-c3ccnc(Sc4cc(C)cc(C)c4)n3)cc2s1 [Example 149, N-(6-(2-((3,5-dimethylphenyl)sulfanyl)-4-pyrimidinyl)-1,3-benzothiazol-2-yl)acetamide] | 186 | 387 |
| CC(=O)Nc1nc2ccc(-c3cnc(OCCCN(C)C)c(NC(C)C)c3)cc2s1 [Example 153, N-(6-(6-(3-(dimethylamino)propoxy)-5-((1-methylethyl)amino)-3-pyridinyl)-1,3-benzothiazol-2-yl)acetamide] | 284 | 1840 |
| CC(=O)Nc1nc2ccc(-c3cnc4c(c3)NC(C)(C)N4C)cc2s1 [Example 157, N-(6-(2,2,3-trimethyl-2,3-dihydro-1H-imidazo[4,5-b]pyridin-6-yl)benzo[d]thiazol-2-yl)acetamide] | 664 | > 40000 |
| COc1ccc(OC)c(Sc2nccc(-c3ccc4nc(NC(C)=O)sc4c3)n2)c1 [Example 158, N-(6-(2-((2,5-dimethoxyphenyl)sulfanyl)-4-pyrimidinyl)-1,3-benzothiazol-2-yl)acetamide] | 831 | 426 |
| CC(=O)Nc1nc2ccc(-c3cnc(OCCN(C)C)c(NC(C)C)c3)cc2s1 [Example 159, N-(6-(6-(2-(dimethylamino)ethoxy)-5-(isopropylamino)pyridin-3-yl)benzo[d]thiazol-2-yl)acetamide] | 914 | 3740 |
| CC(=O)Nc1nc2ccc(-c3ccnc(N4CCOCC4)n3)cc2s1 [Example 160, N-(6-(2-(4-morpholinyl)-4-pyrimidinyl)-1,3-benzothiazol-2-yl)acetamide] | 2740 | 18900 |
| CC(C)(C)OC(=O)Nc1nc2ccc(-c3nnc(NS(=O)(=O)c4ccc(F)cc4)o3)cc2s1 [Example 167, tert-Butyl 6-(5-(4-fluorophenylsulfonamido)-1,3,4-oxadiazol-2-yl)benzo[d]thiazol-2-ylcarbamate] | 663 | 5800 |
| CC(=O)Nc1nc2ccc(-c3ccnc(N(C)S(=O)(=O)c4ccc(F)cc4)n3)cc2s1 [Example 203, N-(6-(2-(4-fluoro-N-methylphenylsulfonamido)pyrimidin-4-yl)benzo[d]thiazol-2-yl)acetamide] | 324 | 930 |
| CC(=O)Nc1nc2ccc(-c3ccnc(N(C)S(=O)(=O)c4ccc5ncccc5c4)n3)cc2s1 [Example 204, N-(6-(2-(N-methylquinoline-6-sulfonamido)pyrimidin-4-yl)benzo[d]thiazol-2-yl)acetamide] | 354 | 404 |

The remaining lines, values ahead:

| IC50 (PI3K α) [nM] | IC50 (PI3K β) [nM] | Compound |
| --- | --- | --- |
| 60.6 | 849 | CC(=O)Nc1nc2ccc(-c3ccnc(NS(=O)(=O)c4cccnc4)n3)cc2s1 [Example 79, N-(6-(2-(pyridine-5-sulfonamido)pyrimidin-4-yl)benzo[d]thiazol-2-yl)acetamide] |
| 153 | 7190 | COc1ccc(S(=O)(=O)Nc2nccc(-c3ccc4nc(NC(C)=O)sc4c3)n2)cc1OC [Example 87, N-(6-(2-(((3,4-dimethoxyphenyl)sulfonyl)amino)-4-pyrimidinyl)-1,3-benzothiazol-2-yl)acetamide] |
| 998 | 24800 | COc1ccc(-c2cccc3nc(NC(C)=O)sc23)cc1F [Example 94] |
| 1680 | > 40000 | COc1cccc(-c2cccc3nc(NC(C)=O)sc23)c1 [Example 96, N-(7-(3-methoxyphenyl)-1,3-benzothiazol-2-yl)acetamide] |
| 17300 | 28000 | CC(=O)Nc1nc2ccc(-c3csc(S(=O)(=O)c4ccc(F)cc4)n3)cc2s1 [Example 97, N-(6-(2-(4-Fluorophenylsulfonyl)thiazol-4-yl)benzo[d]thiazol-2-yl)acetamide] |
| 3140 | 10000 | CC(=O)Nc1nc2ccc(-c3cccc4sc(=O)[nH]c34)cc2s1 [Example 98, N-(6-(2-oxo-2,3-Dihydrobenzo[d]thiazol-4-yl)benzo[d]thiazol-2-yl)acetamide] |
| 540 | > 40000 | CC(=O)Nc1nc2ccc(-c3ccnc(OCCO)n3)cc2s1 [Example 104, N-(6-(2-(2-hydroxyethoxy)-4-pyrimidinyl)-1,3-benzothiazol-2-yl)acetamide] |
| 19.6 | 260 | CC(=O)Nc1nc2ccc(-c3ccnc(Sc4ccc(C)cc4C)n3)cc2s1 [Example 122, N-(6-(2-((2,4-dimethylphenyl)sulfanyl)-4-pyrimidinyl)-1,3-benzothiazol-2-yl)acetamide] |
| 23.5 | 537 | CC(=O)Nc1nc2ccc(-c3ccnc(Sc4cc(C)ccc4C)n3)cc2s1 [Example 123, N-(6-(2-((2,5-dimethylphenyl)sulfanyl)-4-pyrimidinyl)-1,3-benzothiazol-2-yl)acetamide] |
| 69.9 | 2880 | CC(=O)Nc1nc2ccc(-c3ccnc(Sc4ccc(Cl)cc4)n3)cc2s1 [Example 138, N-(6-(2-((4-chlorophenyl)sulfanyl)-4-pyrimidinyl)-1,3-benzothiazol-2-yl)acetamide] |
| 111 | > 40000 | CC(=O)Nc1nc2ccc(-c3cnc(C)c(N)c3)cc2s1 [Example 142, N-(6-(5-amino-6-methyl-3-pyridinyl)-1,3-benzothiazol-2-yl)acetamide] |
| 275 | 864 | CNc1ncc(-c2ccc3nc(NC(C)=O)sc3c2)cc1N [Example 152, N-(6-(5-amino-6-(methylamino)pyridin-3-yl)benzo[d]thiazol-2-yl)acetamide] |
| 376 | 1210 | CC(=O)Nc1nc2ccc(-c3ccnc(Sc4ccccc4C(C)C)n3)cc2s1 [Example 154, N-(6-(2-((2-(1-methylethyl)phenyl)sulfanyl)-4-pyrimidinyl)-1,3-benzothiazol-2-yl)acetamide] |
| 17.8 | 322 | CC(=O)Nc1nc2ccc(-c3nnc(NS(=O)(=O)c4ccc(F)cc4)o3)cc2s1 [Example 164, N-(6-(5-(4-Fluorophenylsulfonamido)-1,3,4-oxadiazol-2-yl)benzo[d]thiazol-2-yl)acetamide] |
| 196 | 170 | Cc1ccc(S(=O)(=O)Nc2nnc(-c3ccc4nc(N)sc4c3)o2)cc1 [Example 165, N-(5-(2-Aminobenzo[d]thiazol-6-yl)-1,3,4-oxadiazol-2-yl)-4-methylbenzenesulfonamide] |
| 665 | 816 | Nc1nc2ccc(-c3nnc(NS(=O)(=O)c4ccc(F)cc4)o3)cc2s1 [Example 168, N-(5-(2-aminobenzo[d]thiazol-6-yl)-1,3,4-oxadiazol-2-yl)-4-fluorobenzenesulfonamide] |
| 4240 | 2690 | CC(C)(C)OC(=O)Nc1nc2ccc(-c3nnc(NCc4ccccc4)o3)cc2s1 [Example 169, tert-Butyl 6-(5-(benzylamino)-1,3,4-oxadiazol-2-yl)benzo[d]thiazol-2-ylcarbamate] |
| 3910 | 4760 | CC(C)(C)OC(=O)Nc1nc2ccc(-c3nnc(N(Cc4ccccc4)S(C)(=O)=O)o3)cc2s1 [Example 170, tert-Butyl 6-(5-(N-benzylmethan-9-ylsulfonamido)-1,3,4-oxadiazol-2-yl)benzo[d]thiazol-2-ylcarbamate] |
| 126 | 221 | CC(=O)Nc1nc2ccc(-c3ccnc(N(C)S(=O)(=O)c4cccc5ccccc45)n3)cc2s1 [Example 207, N-(6-(2-(N-methylnaphthalene-1-sulfonamido)pyrimidin-4-yl)benzo[d]thiazol-2-yl)acetamide] |
